# Laboratory results: patent US20250082760A1 (priority 2020, published 2025)
# Read-outs that look alike come from different tables or passages of the source.
# Columns and labels:
# [1] = water solubility experiments; format: physicochemical
# [2] = test system: hot plate pain threshold in ICR mice; assay: hot plate method, compound 2, intravenous administration; format: in vivo; details: for Pain threshold before administration: baseline; for Pain threshold before administration / Pain threshold after administration: X ± SD
# Procedure: 20 ICR mice, 18-22 g, half male and half male, were purchased from the animal room of Xi′an Jiaotong University School of Medicine; rearing conditions: room temperature 18-20° C., same-sex cages, 12-hour light, regular ventilation, conventional full-price solid feed feeding, and the bedding was changed every two days; 20 mice were randomly divided into 2 groups (low-dose test drug group, test drug high-dose group), 10 mice in each group […].
# An appropriate amount of compound 2 was accurately weighed and dissolved in 5% glucose water to prepare a concentration of 2 mg/ml (dissolved state is good, basically transparent), which was utilized as a mother solution. During the test, according to the test requirements, it was diluted with 5% glucose aqueous solution to an appropriate concentration.
# The first group was the high-dose test drug group, and the test drug was given 10 mg/kg by tail vein injection; the second group was the low-dose test drug group, and the test drug was given 3 mg/kg by tail vein injection.
# (§1) The mice were placed in a hot plate apparatus at a temperature of 55±0.5° C., and the pain thresholds of the mice were measured and recorded before administration, 30 minutes after administration, 60 minutes after administration, and 120 minutes after administration.
# [3] = test system: convulsions in mice induced by electrical stimulation; assay: anticonvulsant effect on mice induced by electrical stimulation; format: in vivo
# Procedure: (1) Divide 40 mice (20♀20) into 5 groups at random, with 8 mice (4♀4) in each group, and label No. 1 to No. 8 with picric acid respectively; (2) All mice were tested according to the order of groups and labels electrical stimulation, the initial voltage was 40V, the voltage was increased by 2.5V each time, the time interval between two electrical stimulations for the same mouse was 20 min, the threshold voltage value of convulsion and the time from convulsion to complete recovery were recorded, and the dead mice were discarded, qualified mice were screened; (3) After screening, 7 mice (2♀5) in the 40 mice could not recover after convulsions and died, and the remaining 33 qualified mice […]; (4) From standby 7 mice were screened out as a supplement, and the number of the dead mice in step (2) was marked with picric acid and added to the corresponding groups, so that a total of 40 (20♀20) qualified mice in 5 groups were finally obtained., all mice were weighed and recorded.
# Positive drug: sodium valproate (specification 0.2 g), take 1 tablet in a mortar, add 20 ml of 0.5% CMC-Na solution while grinding, to a suspended state, set EP tube for use; test drug (compound 5): Dissolve in distilled water to 5, 10, and 20 mg/ml solutions, respectively, and set EP tubes for later use.
# Electrical stimulation was performed 1.5 hours after the last administration, and each mouse was given the threshold voltage measured before to observe the experimental phenomenon and record whether there was convulsions and death occurred.
# The first group was the blank control group, which was given 0.4 ml/20 g of 0.5% CMC-Na by gavage; the second group was the positive drug control group, which was given sodium valproate 200 mg/kg by gavage; the third group was the test drug the low-dose group, which was given 100 mg/kg of compound 5 by gavage; the fourth group was the test drug medium-dose group, which was given 200 mg/kg of compound 5 by gavage; the fifth group was the test drug high-dose group, which was given 400 mg/kg of compound 5 by gavage.
# 1.5 h after the last administration, electrical stimulation was performed according to the threshold voltage measured before each mouse, the experimental phenomenon was observed, and the occurrence of convulsions and death were recorded. If convulsion occurs, record the time of complete recovery; if no convulsion occurs, continue to increase the voltage with a gradient of 2.5V to measure the current threshold voltage value and recovery time.
# Strictly follow the 5 periods of convulsion in mice, namely, latency period, rigid flexion period, hindlimb extension period, clonic period and recovery period to judge whether the mice have convulsions after electrical stimulation, and the phenomenon of death can not be recovered after convulsions.
# [4] = test system: hot plate pain threshold in mice; assay: hot plate method, compound 1, intragastric administration; format: in vivo; details: for Pain response time Before administration: baseline, n 10; for Pain response time Before administration / Pain response time After administration: X ± SD; for Pain response time After administration / Pain response time extension rate: 60 min after administration; for Pain response time extension rate: blank group 3.9 ± 6.6
# Procedure: All the mice participating in the experiment were subjected to hot plate pain threshold detection before the experiment, and qualified mice with pain threshold of 10-40 s were screened.
# Accurately weigh an appropriate amount of compound 1, dissolve it in distilled water and prepare a mother liquor of 100 mg/ml, then dilute to 1.25 mg/ml (25 mg/kg), 2.5 mg/ml (50 mg/kg) with double distilled water respectively; accurately weigh an appropriate amount of the positive control drug gabapentin, dissolve in distilled water and prepare a 100 mg/ml mother solution, and then dilute to 10 mg/ml (200 mg/kg) with double distilled water. All medicines are prepared and utilized as needed.
# 40 only qualified mice were divided into 4 groups, half male and half female in each group. The first group is the blank group, no administration; the second group is the positive control (gabapentin) 25 mg/kg group; the third group is the test drug 25 mg/kg group; the fourth group is the test drug 50 mg/kg group 4. All were administered by gavage.
# The mice were placed in a hot plate apparatus at a temperature of 55±0.5° C., and the pain thresholds of the mice were measured and recorded before administration and 60 min after administration.
# [5] = test system: hot plate pain threshold in ICR mice; assay: hot plate method, compound 1, intravenous administration; format: in vivo; details: for Pain threshold before administration: baseline; for Pain threshold before administration / Pain threshold after administration: X ± SD
# Procedure: 20 ICR mice, 18-22 g, half male and half male, were purchased from the animal room of Xi′an Jiaotong University School of Medicine; rearing conditions: room temperature 18-20° C., same sex rearing in separate cages, 12-hour light, regular ventilation, conventional full-price solid feed feeding, bedding changed every two days; 20 mice were randomly divided into 2 groups (low-dose test drug group, test drug high-dose group) with 10 mice in each group (5 ♀5).
# An appropriate amount of compound 1 was accurately weighed and dissolved in 0.9% physiological saline to prepare a concentration of 5 mg/ml (dissolved state is good, basically transparent), which was used as a mother solution. During the test, according to the test requirements, diluted with normal saline to an appropriate concentration.
# The first group was the low-dose test drug group, and the test drug was given 10 mg/kg by tail vein injection; the second group was the test drug high-dose group, and the test drug was given 15 mg/kg by tail vein injection.
# as §1
# [6] = 10 mg/kg tail vein group, hot plate 55±0.5° C.
smiles,measurement,setting,value
"CC(C)c1cc(I)cc(C(C)C)c1OC(=O)CC1(CN)CCCCC1.Cl [Compound 2, 4-iodo-2,6-diisopropylphenyl 2-(1-(aminomethyl)cyclohexyl)acetate hydrochloride]",solubility,[1],13000 µg/mL
same,logP,physchem,1.66
same,Pain threshold before administration,[2]; 3 mg/kg tail vein group,11.33 ± 4.08 s
same,Pain threshold after administration,"[2]; 3 mg/kg tail vein, 30 min",12.41 ± 3.67 s
same,Pain threshold after administration,"[2]; 3 mg/kg tail vein, 60 min",10.16 ± 3.38 s
same,Pain threshold after administration,"[2]; 3 mg/kg tail vein, 120 min",6.47 ± 5.40 s
same,Pain threshold before administration,[2]; [6],13.18 ± 3.33 s
same,Pain threshold after administration,"[2]; 10 mg/kg tail vein, 30 min",18.10 ± 5.96 s
same,Pain threshold after administration,"[2]; 10 mg/kg tail vein, 60 min",13.98 ± 6.78 s
same,Pain threshold after administration,"[2]; 10 mg/kg tail vein, 120 min",14.18 ± 6.90 s
same,analgesic effect in the hot plate test,"[2]; intravenous, at 10 mg/kg performed well 30 minutes after injection",good analgesic effect
"CC(C)c1cccc(C(C)C)c1OC(=O)CC1(C[N+](C)(C)C)CCCCC1 [Compound 6, (1-(2-(2,6-diisopropylphenoxy)-2-oxoethyl)cyclohexyl)-N,N,N-tri-methylmethanaminium iodide]",solubility,[1],900 µg/mL
same,logP,physchem; fat/water partition (phases not further specified),1.54
"CCCC(CCC)C(=O)[O-].[Na+] [sodium valproate, reference compound]",anti-electrical convulsion ability (threshold voltage increase),"[3]; compared with blank group, sodium valproate 200 mg/kg gavage, 1.5 h after last administration, p<0.05",significantly improve
same,weight gain of mice,"[3]; mouse, in vivo",no difference
CC(C)c1cccc(C(C)C)c1OC(=O)NCC1(CC(=O)O)CCCCC1 [Compound 3],solubility,[1],80 µg/mL
same,logP,physchem,2.38
"CC(C)c1cccc(C(C)C)c1OC(=O)CC1(CN)CCCCC1.Cl [Compound 1, 2,6-diisopropylphenyl 2-(1-(aminomethyl)cyclohexyl)acetate hydrochloride]",Pain response time Before administration,[4]; 25 mg/kg gavage group,22.0 ± 10.2 s
same,Pain response time After administration,[4]; 25 mg/kg gavage,32.1 ± 14.5 s
same,Pain response time extension rate,[4]; 25 mg/kg gavage,59.3 ± 66.7 %
same,Pain response time Before administration,[4]; 50 mg/kg gavage group,20.0 ± 5.9 s
same,Pain response time After administration,[4]; 50 mg/kg gavage,40.2 ± 17.9 s
same,Pain response time extension rate,[4]; 50 mg/kg gavage,100.0 ± 91.1 %
same,"analgesic effect, hot plate, gavage","[4]; 25 and 50 mg/kg gavage, comparable to gabapentin",can prolong the reaction time of hot plate pain
same,Pain threshold before administration,[5]; [6],8.92 ± 3.05 s
same,Pain threshold after administration,"[5]; 10 mg/kg tail vein, 30 min",17.09 ± 6.05 s
same,Pain threshold after administration,"[5]; 10 mg/kg tail vein, 60 min",16.96 ± 6.13 s
same,Pain threshold after administration,"[5]; 10 mg/kg tail vein, 120 min",12.36 ± 5.75 s
same,Pain threshold before administration,[5]; 15 mg/kg tail vein group,10.90 ± 3.72 s
same,Pain threshold after administration,"[5]; 15 mg/kg tail vein, 30 min",18.88 ± 6.06 s
same,Pain threshold after administration,"[5]; 15 mg/kg tail vein, 60 min",13.49 ± 6.53 s
same,Pain threshold after administration,"[5]; 15 mg/kg tail vein, 120 min",6.47 ± 5.40 s
same,analgesic effect in the hot plate test,"[5]; intravenous 10 and 15 mg/kg, 10 mg/kg best, good within 30-60 minutes after injection",good analgesic effect
same,solubility,[1],18000 µg/mL
same,logP,physchem,1.1
CC(C)c1cc(I)cc(C(C)C)c1OC(=O)NCC1(CC(=O)O)CCCCC1 [Compound 4],solubility,[1],40 µg/mL
same,logP,physchem,3.52
